From patent publication US20060020029A1, “Pharmaceutical compositions from ethnobotanicals” (priority 2004, published 2006)
In brackets after ≈: the same amount, converted by molar mass. Several values for one entry are separate records, joined by “and”; a condition that tells them apart may be missing. Identical values can stand only once. Like-named read-outs stand apart in the source and are kept apart here.

Assays:
[1] = test system: RSV; assay: Viral yield assay (VYA); assay type: cell-based, respiratory syncytial virus
Experimental: The materials and methods used for VYA are as follows. […] Each concentration of the test articles or control drug was tested in triplicate wells. […] The aliquots from each of the eight wells of a given column were transferred to the first column of a fresh 96-well monolayer culture of Hep-2 cells. The contents were mixed and serially diluted across the remaining columns of the secondary plate. Each column of the original primary plate was diluted across a separate plate in this manner. The cultures were incubated for 7 additional days, and the end point was monitored by CPE assay as described above.

[2] = in vitro; settings: African green monkey
[3] = test system: RSV; assay: Limited pretreatment of host cells, CPE assay; assay type: cell-based, respiratory syncytial virus; settings: removed before infection
Experimental: A limited pretreatment of host cells with EB fractions was investigated as follows. […] The cells were incubated in fresh medium without the test article. After 7 days, the viral inhibition was evaluated using CPE assay protocol.

[4] = test system: RSV-Long; assay: Plaque reduction assay (PRA); assay type: cell-based; settings: human respiratory syncytial virus, HEp-2; Table 3, plaque reduction assay
Experimental: The materials and methods used for PRA are as follows. […] The overlay was prepared by mixing 1 part of 1.2% SeaPlaque and 1 part 2×MEM containing 4% FBS, plus appropriate concentrations of each EB fraction or ribavirin. Each concentration of the EB fraction or ribavirin was tested in duplicate wells. After 7 days, the agarose was carefully removed and cells were rinsed twice with 2 ml of PBS. The cell monolayer was fixed using 0.2% crystal violet in 20% methanol at room temperature. After 30 minutes, the fixer was removed by washing with deionized water, and the plates were air-dried prior to counting plaques. The number of plaques obtained for each fraction or ribavirin was expressed as a percentage of the control. The percentage values obtained were used to calculate IC50 values.

[5] = test system: RSV B; assay: CPE assay, RSV-B in Hep-2 cells; assay type: cell-based, respiratory syncytial virus
[6] = in vitro; settings: human
[7] = test system: RSV-Long; assay: Time of addition, CPE assay; assay type: cell-based, respiratory syncytial virus; settings: human respiratory syncytial virus
Experimental: Determine the Time of Addition for EB Fractions. […] This activity is related to the life cycle of the virus and the step in the cycle where the compounds act. In this example, experiments were performed to investigate the effect of the time of addition of EB fractionated products on anti-RSV activity.
Mechanism of action studies were performed as follows. Mechanism of action studies were performed using CJ4-16-4 in a CPE assay with Hep-2 cells.

[8] = test system: RSV A2; assay: Cotton rat RSV infection model, pulmonary titer
Experimental: All groups consisted of four randomly selected cotton rats. All test materials were administered intraperitoneally with once daily dosing. The placebo group was administered distilled water at volumes and schedules identical to the other groups receiving investigational test articles. In general, timing of administration of ribavarin to the ribavarin-treated group paralleled that of the other treatment groups except that initiation of dosing was on Day 1 for Experiments 1 and 2 and Day 0 for Experiment 3. The dose of ribavarin was 90 mg/kg/day in Experiments 1 and 3 and 180 mg/kg/day in Experiment 2. All animals were inoculated intranasally with approximately 100 median cotton rat infectious doses (CRID50) of RSV A2 on Day 0. Experiments were terminated on either Day 3 or 4 post-infection. […] On the day that the experiment was terminated, all CRs were sacrificed using CO2 to asphyxiate the animals. The lungs from the animals were subsequently removed. The lungs of sacrificed animals were removed, rinsed in sterile phosphate-buffered saline (PBS; pH 7.2) and weighed. Each set of lungs was then transpleurally lavaged using 3 ml of 2% FCS-MEM media. The resulting lung fractions were kept on ice until they were assayed for RSV. The lung fractions of animals from each group were tested for the levels of RSV present.

[9] = test system: RSV-Long; assay: Viral RNA analysis (RiboGreen); assay type: cell-based, respiratory syncytial virus; settings: for RNA Concentration: three days
Experimental: The method for analysis of viral RNA is as follows. Six well plates were infected with 1 ml stock of RSV-Long (10×TCID50) diluted 1:20 in infection medium (DMEM+2% FBS). The plates were incubated in 37° C. incubators for 60 min, after which the inoculum was removed and the plates were rinsed. […] Each concentration was added in duplicate. […] After three days, the culture supernatants were transferred into clean conical tubes and subjected to centrifugation at low speed to remove cell debris. […] RNA was extracted using a commercial RNA extraction kit purchased from Epicentre Technologies (Madison, WI). The procedure was performed according to the manufacturer's instructions, and samples were stored at −20° C. The level of viral RNA in each sample was determined using the RiboGreen® RNA quantitative kit (Molecular Probes, Eugene, Oreg.) according the manufacturer's instructions.

[10] = test system: RSV (Long strain); assay: CPE assay, RSV-Long in Hep-2 cells; assay type: cell-based, respiratory syncytial virus
[11] = test system: RSV-Long (Cotton Rat adapted strain); assay: CPE assay, RSV-Long cotton rat adapted strain; assay type: cell-based, respiratory syncytial virus; settings: Hep-2 cells, CPE assay
[12] = test system: Herpes simplex virus type 1 (MacIntyre strain); assay: CPE assay, HSV-1 specificity; assay type: cell-based; settings: CPE assay with MDCK or Vero cells
Experimental: (§1) To determine whether the fractions are specific RSV inhibitors rather than general antiviral agents, the inventors tested them against influenza type A/Shangdong/09/93 (H3N2), herpes simplex type 1 (MacItyre), and herpes simplex type 2 (MS) using the CPE assay system.
(§2) CJ4-16-4 was tested using influenza type A, herpes simplex virus type 1, and herpes simplex virus type 2 using the CPE assay with MDCK or Vero cells.

[13] = test system: MDCK cells; assay: Cytotoxicity in MDCK cells; settings: isolated compounds
[14] = test system: Influenza A-Shangdong/09/93 (H3N2); assay: CPE assay, influenza A specificity; assay type: cell-based, influenza type A; settings: CPE assay with MDCK or Vero cells
Experimental: as §1, §2

[15] = test system: RSV-A2; assay: CPE assay, RSV-A2 in Hep-2 cells; settings: Hep-2 cells, CPE assay
Experimental: The cell line was propagated in MEM supplemented with 10% heat-inactivated fetal bovine serum (FBS) containing 100 μg/ml of antibiotics (streptomycin/penicillin). […] The overnight medium (MEM containing 10% FBS) was removed, and wells were rinsed twice with 1× phosphate buffer saline (PBS, 200 μl) before adding 10×TCID50 of RSV suspension in fresh medium (MEM plus 2% FBS) to each well, except for cell only wells. […] CellTiter 96 Aqueous Non-Radioactive Cell Proliferation Assay (Promega) was used to monitor the antiviral activity following the manufacturer's instruction. After incubation, the cells were rinsed twice with 200 μl of 1×PBS prior to the addition of 100 μl of fresh medium (MEM plus 10% FBS). […] The extent of cell viability was measured at 490 nm using an ELISA reader, and the absorbance was used to calculate percent inhibition. Antiviral activity of each EB fraction or ribavirin is expressed as IC50, which represents the concentration of the test substance required to reduce the virus infection (as measured by the destruction of the host cells) by 50%.
Hep-2 cells were used in the CPE assay to determine anti-RSV properties.

[16] = test system: Herpes simplex virus type 2 (MS-strain); assay: CPE assay, HSV-2 specificity; assay type: cell-based; settings: CPE assay with MDCK or Vero cells
Experimental: as §1, §2

[17] = test system: Vero cells; assay: Cytotoxicity (MTS) in uninfected Vero cells; settings: isolated compounds
[18] = test system: Hep-2 cells; assay: Cytotoxicity (MTS) in uninfected Hep-2 cells; settings: isolated compounds
[19] = human respiratory syncytial virus, HEp-2, Table 2, extracted fractions, average of two or three experiments
[20] = 90 mg/kg/day B.I.D i.p. D0-D3, water, harvest day 4

For `NC(=O)c1ncn([C@@H]2O[C@H](CO)[C@@H](O)[C@H]2O)n1` [Ribavirin], the “Mean Titer” value ([1]; 3.1 μg/ml) was 3 log 10, the “Reduction of viral titer” value ([1]; 3.1 μg/ml) was 1 log10 and the “Mean Titer” value ([1]; 25.0 μg/ml) was 2 log 10. For the same compound, the “Reduction of viral titer” value ([1]; 25.0 μg/ml) was 2 log10, the CC50 at 7 days [2] was > 100 µg/mL and the IC50 ([3]; human respiratory syncytial virus, pre-treatment time 4 hrs, read-out: IC50) was > 50 µg/mL. The IC50 ([3]; pre-treatment time 0 hrs) was >50 µg/mL, the IC50 ([3]; pre-treatment time 8 hrs) was >50 µg/mL and the IC50 ([3]; pre-treatment time 24 hrs) was >50 µg/mL. The IC50 [4] was 3.84 µg/mL (≈ 15.7 µM), the IC50 [5, 19] was 3.2 ± 0.5 µg/mL (≈ 13.1 µM) and the CC50 at 7 days [6] was 76.4 ± 4.4 µg/mL (≈ 313 µM). It also gave an IC50 ([7]; addition 0 h, 10×TCID50 RSV-Long, Hep-2) of 3.6 ± 0.36 µg/mL (≈ 14.7 µM), an IC50 ([7]; addition +7 h post-infection) of 3.9 ± 0.64 µg/mL (≈ 16 µM) and an IC50 ([7]; addition +26 h post-infection) of 4.43 ± 0.88 µg/mL (≈ 18.1 µM). The Reduction ([8]; 90 mg/kg/day B.I.D i.p. D0-D3, vs placebo) was 2.9 Log 10, the “RSV Pulmonary Titer Mean ± SD” value [8, 20] was 1.5 ± 1.8 log10/g lung and the “RSV Pulmonary Titer in individual CR (A-D)” value [8, 20] was 2.8 log10/g lung and 3.3 log10/g lung and 0 log10/g lung (2×). For the same compound, the “reduction of mean viral titer” value ([8]; Experiment 1) was 2.5 logs, the “RSV pulmonary Mean Titers ± SD” value ([8]; Experiment 1: 100 mg/kg/day i.p. (ribavirin 90 mg/kg/day), harvest Day 4) was 3.1 ± 0.29 log 10 and the “reduction of mean viral titer” value ([8]; Experiment 2) was 2.5 logs. For the same compound, the “RSV pulmonary Mean Titers ± SD” value ([8]; Experiment 2: 100 mg/kg/day i.p. from Day -1 (ribavirin 180 mg/kg/day), harvest Day 3) was 2.3 ± 0.4 log 10, the “reduction of mean viral titer” value ([8]; Experiment 3) was 2.5 logs and the “RSV pulmonary Mean Titers ± SD” value ([8]; Experiment 3: 250 mg/kg/day i.p. from Day -1 (ribavirin 90 mg/kg/day), harvest Day 3) was 2.2 ± 1.5 log 10. The “Overall Mean Titer” value ([8]; three experiments) was 2.53 ± 0.73 log 10, the “reduction of overall mean viral titer” value ([8]; three experiments) was 2.5 logs and the “animals with no detectable virus” value ([8]; three experiments combined) was 1 out of 12. The “RNA Concentration” value ([9]; drug concentration 1 μg/ml) was 450 ng/mL, the “RNA Concentration” value ([9]; drug concentration 20 μg/ml) was 225 ng/mL and the “reduction of viral RNA” value ([9]; drug concentration increased from 1 to 20 μg/ml) was 2 fold. It also gave an IC50 [10, 19] of 3.8 ± 0.2 µg/mL (≈ 15.6 µM).

In the case of `O=C(/C=C/c1ccc(O)c(O)c1)O[C@H]1[C@H](O)C[C@](O)(C(=O)O)C[C@H]1OC(=O)/C=C/c1ccc(O)c(O)c1` [CJ2-27-4, 4,5-dicaffeoylquinic acid], the “EC50, RSV-Long (Cotton Rat adapted strain)” value [11] is reported as 5.519 µg/mL (≈ 10.7 µM), the “EC50, Herpes simplex virus type 1 (MacIntyre strain)” value [12] is reported as >50 µg/mL and the “CC50, MDCK” value [13] is reported as >200 µg/mL. The “EC50, Influenza A-Shangdong/09/93 (H3N2)” value [14] was >50 µg/mL, the “EC50, RSV-B (Washington)” value ([5]; Hep-2 cells, CPE assay) was 0.218 µg/mL (≈ 0.422 µM) and the “EC50, RSV-A2” value [15] was 0.521 µg/mL (≈ 1.01 µM). The “EC50, Herpes simplex virus type 2 (MS-strain)” value [16] was >50 µg/mL, the “CC50, Vero” value [17] was >200 µg/mL and the “CC50, Hep 2” value [18] was >200 µg/mL. The “EC50, RSV-Long” value ([10]; Hep-2 cells, CPE assay) was 0.052 µg/mL (≈ 0.101 µM).
